Measured values from paper PMC9400670, “Establishing the selective phospholipid membrane coordination, permeation and lysis properties for a series of ‘druggable’ supramolecular self-associating antimicrobial amphiphiles” (Chemical Science, 2022).
Read-outs that look alike come from different tables or passages of the source.

Legend:
[1] = Satellite terminal tissue sampling after i.v. dosing; assay type: in vivo; conditions: n = 3 mice; for concentration at 0.5 h / concentration at 4 h: CD-1, mouse, iv, 1 mg kg^−1; for concentration at 0.5 h: 0.5 h post i.v. dosing
Protocol: Finally, to gain an understanding of the propensity for SSAs 3 and 5 to diffuse from the mouse circulatory system into the mouse tissues, satellite terminal tissue sampling was also performed.

[2] = system: PC, PG and PE : PG mixed nanodiscs; experiment: Phospholipid nanodisc 1H NMR CPMG coordination assay, comparison across the three nanodiscs; assay type: binding; conditions: SSA 0.10 mM, in words
Text: Finally, to establish how any single SSA structural variation affects the coordination of an individual salt component to the surface of a phospholipid membrane, the binding of the anionic and cationic components of SSAs 5–12 with nanodiscs comprised of PC, PG or the PE : PG mix (Table 2) was studied. Nanodiscs were synthesised from synthetic vesicles of the relevant phospholipid composition. For full synthetic procedures and nanodisc characterisation please see ESI (Section 13). ^†[34,35]
Styrene-maleic acid (SMA) nanodiscs are small biomimetic scaffolds with a hydrodynamic diameter ≈ 10 nm. […]
Fluorescence polarisation: Lipid films were resuspended in Buffer (150 mM KCl, 10 mM HEPES, pH 7.4, 2 mM EGTA) and subjected to 9 freeze-thaw cycles in liquid nitrogen and extruded 20 times through a 200 nm polycarbonate membrane. […]
Nanodisc preparation: Lipid films were resuspended in Buffer (20 mM NaCl, 20 mM NaH 2PO4, pH 7.4) and sonicated for 1 hour, at a 5:1 ratio, SMA was added and incubated at 37 °C for 1 hour. Dialysed overnight in 5 L of the same buffer in 10 KDa cut-off dialysis tubing, concentrated, and underwent gel filtration size exclusion chromatography on a Superdex 200 10/300 GL column (GE Healthcare) in the same buffer, whilst monitoring absorbance at 260 nm. Nanodisc quantification carried out via monitoring of absorbance at 260 nm using a calibration curve.2 […]

[3] = liver, read-out: Concentration of SSA in liver
[4] = liver, 4.0 h post i.v. dosing, read-out: Concentration of SSA in liver
[5] = lung, read-out: Concentration of SSA in lung
[6] = muscle, read-out: Concentration of SSA in muscle

Row | Concentration of SSA in lung ([1]; 4.0 h post i.v. dosing) | Concentration of SSA in muscle ([1]; 4.0 h post i.v. dosing) | concentration at 0.5 h [1, 3] | concentration at 4 h [1, 4] | concentration at 0.5 h [1, 5] | concentration at 0.5 h [1, 6] | concentration at 4 h ([1]; lung, 4.0 h post i.v. dosing, read-out: Concentration of SSA in lung) | Compound | interaction of the anionic component of SSA with phospholipid nanodiscs [2]
1 | BLQ | BLQ | 2200 nM | 429 nM | 153 nM | 172 nM |  | O=C(NCS(=O)(=O)O)Nc1ccccc1-c1nc2ccccc2s1 [SSA 5] | 
2 |  |  |  |  |  |  |  | Cc1ccc2nc(-c3ccc(NC(=S)NCS(=O)(=O)O)cc3)sc2c1 [SSA 12] | greatest binding affinity for all three nanodiscs of the SSAs tested
3 |  |  |  |  |  |  |  | Cc1ccc2nc(NC(=O)NCS(=O)(=O)O)sc2c1 [SSA 7] | not to interact with any great significance to any of the phospholipid nanodiscs tested
4 |  | BLQ | 1230 nM | 206 nM | 86 nM | 86 nM | 18 nM | O=C(NCS(=O)(=O)O)Nc1ccc(C(F)(F)F)cc1 [SSA 3] | 
